# Assays:
# diamondback moth larvae = test: Insecticidal effect on diamondback moth larvae; assay type: in vivo; settings: 500 ppm, wettable powder, cabbage leaf disc soaked, 3rd instar larvae, 4 days after release
# Procedure: A disc of cabbage leaf (6 cm in diameter) was cut out and soaked for 1 minute in a water-diluted solution of the insecticide of the present invention (wettable powder) produced in accordance with the method of Formulation Example 1. After the soaking, the disc was air-dried and set in a plastic cup (7 cm in inner diameter), and 5 diamondback moth larvae of 3rd instar were released therein (one concentration, two repetition). After 4 days of the release of larvae, mortality and agony of the larvae were examined, and insecticidal ratio (%) was calculated by defining the larvae in agony as ½ dead larvae.
# common cutworm larvae = test: Insecticidal effect on common cutworm larvae; assay type: in vivo; settings: 500 ppm, wettable powder, cabbage leaf disc soaked, 3rd instar larvae, 25° C., 5 days
# Procedure: A disc of cabbage leaf (6 cm in diameter) was cut out and soaked for 1 minute in a water-diluted solution of the insecticide of the present invention (wettable powder) produced in accordance with the method of Formulation Example 1. After the soaking, the leaf disc was air-dried and set in a plastic cup (7 cm in inner diameter), and 5 common cutworm larvae of 3rd instar were released therein (one concentration, two repetition). The thus released larvae were kept in a constant temperature chamber at 25° C., mortality and agony of the larvae were examined 5 days thereafter, and insecticidal ratio (%) was calculated by defining the larva in agony as ½ dead larvae.
# [1] = system: two-spotted spider mite female imagoes; test: Acaricidal effect on two-spotted spider mite imagoes; assay type: in vivo; settings: 500 ppm, wettable powder sprayed on kidney bean leaf disc, 24 hours after treatment
# Procedure: A total of 10 two-spotted spider mite female imagoes were released on a disc cut out from a kidney bean leaf (3 cm in diameter). The acaricide of the present invention (wettable powder) produced in accordance with the method of Formulation Example 1 was diluted with water to a predetermined concentration, and the solution (3.5 ml) was applied on the just described cut leaf (one concentration, two repetition) using a rotary sprayer (manufactured by Mizuho Rika). After 24 hours of the treatment, mortality of the imagoes was examined to calculate acaricidal ratio (%).
# [2] = system: two-spotted spider mite eggs; test: Acaricidal effect on two-spotted spider mite eggs; assay type: in vivo; settings: 500 ppm, wettable powder sprayed on kidney bean leaf disc, egg-killing ratio 8 days after treatment
# Procedure: A total of 5 two-spotted spider mite female imagoes were released on a disc cut out from a kidney bean leaf (3 cm in diameter). The thus released female imagoes were allowed to lay eggs on the cut leaf for 20 hours and then removed. The acaricide of the present invention (wettable powder) produced in accordance with the method of Formulation Example 1 was diluted with water to a predetermined concentration, and the solution (3.5 ml) was applied on the just described disc (one concentration, two repetition) using a rotary sprayer (manufactured by Mizuho Rika). After 8 days of the treatment, the number of unhatched eggs and the number of hatched imagoes were examined to calculate egg-killing ratio (%).
# [3] = system: brown rice planthopper larvae; test: Insecticidal effect on brown rice planthopper larvae; assay type: in vivo; settings: 500 ppm, emulsifiable concentrate sprayed on rice seedling, 4th instar larvae, 5 days after treatment
# Procedure: A sprouted rice seedling was set in a glass cylinder (3 cm in inner diameter×17 cm in length), and 5 brown rice planthopper larvae of 4th instar were released therein. A water-diluted solution (0.5 ml) of the insecticide of the present invention (emulsifiable concentrate) produced in accordance with the method of Formulation Example 3 was applied to the just described glass cylinder (one concentration, two repetition) using a sprayer (manufactured by Mizuho Rika). After 5 days of the treatment, mortality and agony of the larvae were examined, and insecticidal ratio (%) was calculated by defining the larva in agony as ½ dead larvae.
# [4] = system: adzuki bean weevil imagoes; test: Insecticidal effect on adzuki bean weevil imagoes; assay type: in vivo; settings: 500 ppm, emulsifiable concentrate sprayed, 25° C., 4 days after treatment
# green peach aphid larvae = test: Insecticidal effect on green peach aphid larvae; assay type: in vivo; settings: 500 ppm, emulsifiable concentrate, radish leaf soaked, 25° C., 4th day after treatment
# Procedure: A petiole part of a radish leaf was put into a screw bottle (capacity: 10 ml) filled with water, and 5 to 6 per one leaf of green peach aphid imagoes were inoculated. After the inoculation, the resulting bottle was put into a glass cylinder (3.5 cm in diameter and 15 cm in height, equipped with a mesh cover), and the green peach aphid imagoes were allowed to propagate in a constant temperature chamber at 25° C. for 3 days. After removal of the green peach aphid imagoes from the radish leaf, the resulting leaf was soaked (about 5 seconds) in a water-diluted solution of the insecticide (emulsifiable concentrate) of the present invention and then returned into the glass cylinder (one concentration, two repetition). The cylinder was kept in the constant temperature chamber of 25° C., and the number of aphid individuals on the radish leaf was examined on the 4th day after the treatment to calculate the insecticidal ratio (%) based on the result.
melting point,SMILES,Insecticidal ratio (%) (common cutworm larvae),further results
167 to 168 °C,CCn1c(Nc2cc(Cl)ccc2Cl)nc(C(F)(F)F)cc1=O,,
,"Cn1c(Nc2cc(C(F)(F)F)ccc2Cl)nc(C(F)(F)F)cc1=O [Compound No. 20, 2-(2-chloro-5-trifluoromethylphenyl)amino-3-methyl-6-trifluoromethyl-4(3H)-pyrimidinone]",100%,Insecticidal ratio (%) (diamondback moth larvae): 100%
,CCCCn1c(Nc2cc(C(F)(F)F)ccc2Cl)nc(C(F)(F)F)cc1=O [Compound No. 22],,Acaricidal ratio (%) imagoes [1]: 100%; Acaricidal ratio (%) eggs [2]: 100%
124 °C,"CCn1c(Nc2ccc(C(F)(F)F)cc2C(F)(F)F)nc(C(F)(F)F)c(Cl)c1=O [Compound No. 34, 2-{2,4-bis(trifluoromethyl)phenyl}amino-5-chloro-3-ethyl-6-trifluoromethyl-4(3H)-pyrimidinone]",,
,"Cn1c(Nc2cc(C(F)(F)F)ccc2C(F)(F)F)nc(C(F)(F)F)cc1=O [Compound No. 46, 2-{2,5-bis(trifluoromethyl)phenyl}amino-3-methyl-6-trifluoromethyl-4(3H)-pyrimidinone]",100%,Insecticidal ratio (%) [3]: 100%; Insecticidal ratio (%) (diamondback moth larvae): 100%; Acaricidal ratio (%) imagoes [1]: 100%; Acaricidal ratio (%) eggs [2]: 100%; Insecticidal ratio (%) [4]: 100%; Insecticidal ratio (%) (green peach aphid larvae): 100%
173 to 175 °C,"CCn1c(Nc2cc(C(F)(F)F)ccc2C(F)(F)F)nc(C(F)(F)F)cc1=O [Compound No. 47, 2-{2,5-bis(trifluoromethyl)phenyl}amino-3-ethyl-6-trifluoromethyl-4(3H)-pyrimidinone]",,
124 to 126 °C,"CCCn1c(Nc2cc(C(F)(F)F)ccc2C(F)(F)F)nc(C(F)(F)F)c(Cl)c1=O [Compound No. 51, 2-{2,5-bis(trifluoromethyl)phenyl}amino-5-chloro-3-propyl-6-trifluoromethyl-4(3H)-pyrimidinone]",,
,"CC(C)Cn1c(Nc2cc(C(F)(F)F)ccc2C(F)(F)F)nc(C(F)(F)F)cc1=O [Compound No. 56, 2-{2,5-bis(trifluoromethyl)phenyl}amino-3-isobutyl-6-trifluoromethyl-4(3H)-pyrimidinone]",100%,Insecticidal ratio (%) (diamondback moth larvae): 100%; Acaricidal ratio (%) imagoes [1]: 100%; Acaricidal ratio (%) eggs [2]: 100%; Insecticidal ratio (%) [4]: 100%
165 to 167 °C,"CCC(C)n1c(Nc2cc(C(F)(F)F)ccc2C(F)(F)F)nc(C(F)(F)F)cc1=O (stereo not shown) [Compound No. 58, 2-{2,5-bis(trifluoromethyl)phenyl}amino-3-sec-butyl-6-trifluoromethyl-4(3H)-pyrimidinone]",,
133 to 135 °C,"CCC(C)n1c(Nc2cc(C(F)(F)F)ccc2C(F)(F)F)nc(C(F)(F)F)c(Cl)c1=O (stereo not shown) [Compound No. 59, 2-{2,5-bis(trifluoromethyl)phenyl}amino-3-sec-butyl-5-chloro-6-trifluoromethyl-4(3H)-pyrimidinone]",,
154 to 156 °C,"O=c1cc(C(F)(F)F)nc(Nc2cc(C(F)(F)F)ccc2C(F)(F)F)n1C1CCCCC1 [Compound No. 64, 2-{2,5-bis(trifluoromethyl)phenyl}amino-3-cyclohexyl-6-trifluoromethyl-4(3H)-pyrimidinone]",,
181 to 183 °C,"O=c1c(Cl)c(C(F)(F)F)nc(Nc2cc(C(F)(F)F)ccc2C(F)(F)F)n1C1CCCCC1 [Compound No. 65, 2-{2,5-bis(trifluoromethyl)phenyl}amino-5-chloro-3-cyclohexyl-6-trifluoromethyl-4(3H)-pyrimidinone]",,
116 to 118 °C,"C=CCn1c(Nc2cc(C(F)(F)F)ccc2C(F)(F)F)nc(C(F)(F)F)cc1=O [Compound No. 66, 3-allyl-2-{2,5-bis(trifluoromethyl)phenyl}amino-6-trifluoromethyl-4(3H)pyrimidinone]",,
,"CC(C)Cn1c(Nc2cc(C(F)(F)F)ccc2Cl)nc(C(F)(F)F)cc1=O [compound 23, 2-(2-chloro-5-trifluoromethylphenyl)amino-3-isobutyl-6-trifluoromethyl-4(3H)-pyrimidinone]",100%,
,"Cn1c(Nc2cc(C(F)(F)F)cc(C(F)(F)F)c2)nc(C(F)(F)F)cc1=O [compound 69, 2-{3,5-bis(trifluoromethyl)phenyl}amino-3-methyl-6-trifluoromethyl-4(3H)-pyrimidinone]",100%,Insecticidal ratio (%) (diamondback moth larvae): 100%

# Reference: patent US6548511B1, “Insecticidal/acaricidal agents” (Sagami Chemical Research Center, priority 1997, dated 2003)
